Source: article PMC5358776, “Insight into the mechanism of action of temporin-SHa, a new broad-spectrum antiparasitic and antibacterial agent” (PLoS ONE, 2017)
Read-outs that look alike come from different tables or passages of the source. Where no end group is shown, it is not given here.

Columns and labels:
[1] = test system: L. infantum (axenic) amastigotes; conditions: axenic amastigotes
Protocol: (§1) L. infantum axenic amastigotes were differentiated from promastigotes in MAA medium (supplemented with 20% FCS) and were grown at 37°C in 5% CO2 [23].
(§2) Antiparasitic activity was evaluated against trypanosomatids, such as Leishmania and Trypanosoma. Antileishmanial activity was determined either by a luminescence-based assay (L. infantum, L. major and L. braziliensis) or by cell counting (FACSCalibur flow cytometer, Becton-Dickinson Biosciences, Woburn, MA, USA) after staining with propidium iodide (L. tropica and L. amazonensis), as previously described [23], using promastigotes or axenic amastigotes (1.25 x 10^6 parasites/ml) in mid-log phase and 5-fold serial dilutions of synthetic temporin (50–3.1 μM, final concentrations). […] The half maximal inhibitory concentration (IC50) value was determined with GraphPad Prism 6.0 software (GraphPad Software, La Jolla, CA, USA) using a sigmoidal dose response (variable slope) curve fitting equation. The results are expressed as the means of three independent experiments performed in triplicate (luminescence-based assays) or in duplicate (cell counting-based assays).

L. major promastigotes = conditions: mean of 3 independent experiments in triplicate
Protocol: as §1, §2

Human fibroblasts (HFF) = conditions: MTT, 72 h, 37°C, 1–100 μM; mean of 3 independent experiments in triplicate
S. aureus ATCC 25923 = conditions: MH broth, 10^6 cfu/ml; mean of 3 independent experiments in triplicate
Protocol: (§3) Activity against bacteria and yeasts was assessed with a liquid growth inhibition assay performed in 96-well microtitration plates, according to a previously described protocol [14], using mid-logarithmic phase cultures diluted in Mueller-Hinton (MH, Dominique Dutscher) broth (LB broth for E. faecalis strain and YPD medium for yeasts/fungi) to an A630 value of 0.01 (10^6 cfu/ml) and 2-fold serial dilutions of synthetic temporin (200–1 μM, final concentrations). The minimal inhibitory concentration (MIC) was determined as the mean value of three independent experiments, each performed in triplicate with negative (H2O) and positive (0.7% formaldehyde) controls.

S. pyogenes ATCC 19615 = conditions: MH broth, 10^6 cfu/ml; mean of 3 independent experiments in triplicate
Protocol: (§4) Listeria ivanovii Li4pVS2 (kindly provided by Jean-Marc Berjeaud, Université de Poitiers, France), and Streptococcus pyogenes ATCC 19615 (ATCC) were cultured in brain heart infusion (BHI, Sigma-Aldrich) medium under the same conditions.
as §3

S. aureus ST1065 = conditions: MH broth, 10^6 cfu/ml; mean of 3 independent experiments in triplicate
Protocol: as §3

[2] = test system: L. infantum promastigotes
Protocol: as §1, §2

[3] = test system: L. infantum (intramacrophagic) amastigotes in THP-1-derived macrophages; conditions: infected THP-1-derived macrophages, 4 days; mean of 2 experiments with six replicates
Protocol: Leishmania infantum (strain MHOM/MA/67/ITMAP-263), Leishmania major (strain MHOM/SU/73/5-ASKH), Leishmania tropica (strain MHOM/SU/74/SAFK27), Leishmania amazonensis (strain MHOM/BR/73/M2269), and Leishmania braziliensis (strain MHOM/BR/75/M2904) promastigotes (kindly provided by Francine Pratlong, Centre National de Référence des Leishmania, Montpellier, France) were cultured at 26°C in SDM-79 medium supplemented with 10% fetal calf serum (FCS, Gibco) [23]. […] L. infantum-infected human macrophages were obtained from human THP-1 monocytes, as previously described [23, 78].
Intramacrophagic leishmanicidal activity of the peptides was assessed by incubating L. infantum-infected human macrophages with 2-fold serial dilutions of peptide (50–2.5 μM, final concentrations) for 4 days, as previously described [23]. THP-1-derived macrophages were infected with promastigotes from late log phase at a density of 5 x 10^5 cells/well (ratio 10:1) in RPMI medium for 24 h at 37°C with 5% CO2. […] The results are expressed as the means of two experiments performed with six replicates.

Rat erythrocytes = conditions: 1 h, 37°C, PBS, 2 x 10^7 cells; mean of 3 independent experiments in triplicate
Protocol: (§5) Hemolytic assays were also performed using erythrocytes obtained from fresh blood samples of Wistar male rats (Charles River Laboratories, France). The hemolytic activity was measured by incubating the peptide (1–200 μM, final concentrations) with erythrocytes (2 x 10^7 cells) in PBS (100 μl) for 1 h at 37°C, as previously described [23]. A parallel incubation in the presence of 0.1% (v/v) Triton-X100 was carried out to determine the absorbance associated with 100% hemolysis. […] For THP-1-derived macrophages, viability was determined by Trypan blue staining after incubation with peptide (1–100 μM, final concentrations). LC50 (average concentration of the peptide producing 50% cell lysis) and IC50 values were determined with GraphPad Prism 6.0 software and correspond to the mean obtained from three independent experiments carried out with three (erythrocytes, THP-1 monocytes, HepG2 and HFF cells) or six replicates (THP-1-derived macrophages).
(§6) IC50 or LC50 values were determined for the different human cells mentioned above in the cytotoxicity assays.

Human erythrocytes = assay: Hemolytic assay; conditions: 1 h, 37°C, PBS, 2 x 10^7 cells; mean of 3 independent experiments in triplicate
Protocol: as §5, §6

T. brucei gambiense = conditions: 96 h incubation, cell counting; mean of 3 independent experiments in duplicate
Protocol: (§7) Antiparasitic activity was evaluated against trypanosomatids, such as Leishmania and Trypanosoma. Antileishmanial activity was determined either by a luminescence-based assay (L. infantum, L. major and L. braziliensis) or by cell counting (FACSCalibur flow cytometer, Becton-Dickinson Biosciences, Woburn, MA, USA) after staining with propidium iodide (L. tropica and L. amazonensis), as previously described [23], using promastigotes or axenic amastigotes (1.25 x 10^6 parasites/ml) in mid-log phase and 5-fold serial dilutions of synthetic temporin (50–3.1 μM, final concentrations). Antitrypanosomal activity against T. brucei gambiense and T. cruzi was assessed by cell counting, similar to the L. tropica and L. amazonensis analysis, after incubation of the parasites (96 h for T. brucei gambiense and 120 h for T. cruzi) with the synthetic temporin, as previously described [23]. The half maximal inhibitory concentration (IC50) value was determined with GraphPad Prism 6.0 software (GraphPad Software, La Jolla, CA, USA) using a sigmoidal dose response (variable slope) curve fitting equation. The results are expressed as the means of three independent experiments performed in triplicate (luminescence-based assays) or in duplicate (cell counting-based assays).

[4] = test system: C. parapsilosis ATCC 22019; conditions: YPD medium; mean of 3 independent experiments in triplicate
Protocol: (§8) Candida albicans ATCC 90028, Candida parapsilosis ATCC 22019 (ATCC), and Saccharomyces cerevisiae (laboratory collection) were cultured in yeast peptone dextrose (YPD, Sigma-Aldrich) medium at 30°C.
(§9) The minimal inhibitory concentration (MIC) was determined as the mean value of three independent experiments, each performed in triplicate with negative (H2O) and positive (0.7% formaldehyde) controls.

[5] = test system: Human THP-1-derived macrophages; assay: Cytotoxicity, Trypan blue staining; conditions: 1–100 μM, mean of 3 independent experiments, six replicates
Protocol: as §5, §6

Gram-negative bacteria = conditions: 6 Gram-negative strains of Table 3
Gram-positive bacteria = conditions: 7 Gram-positive strains of Table 3
Yeasts/fungi = conditions: 3 yeast/fungal strains of Table 3
[6] = test system: L. infantum (antimony resistant) promastigotes; conditions: antimony-resistant parasites
Protocol: as §7

[7] = test system: S. enterica (serotype Enteritidis); conditions: MH broth, 10^6 cfu/ml; mean of 3 independent experiments in triplicate
Protocol: as §3

P. aeruginosa ATCC 27853 = conditions: MH broth, 10^6 cfu/ml; mean of 3 independent experiments in triplicate
Protocol: as §4, §3

Human THP-1 monocytes = conditions: MTT, 72 h, 37°C, 1–60 μM; mean of 3 independent experiments in triplicate
L. ivanovii = conditions: MH broth, 10^6 cfu/ml; mean of 3 independent experiments in triplicate
Protocol: as §4, §3

S. cerevisiae = conditions: YPD medium; mean of 3 independent experiments in triplicate
Protocol: as §8, §9

[8] = test system: L. infantum promastigotes; conditions: 3 μM, at 180 min, HBSS
S. aureus ATCC 43300 = conditions: strain resistant to methicillin and oxacillin; MH broth, 10^6 cfu/ml; mean of 3 independent experiments in triplicate
Protocol: as §4, §3

E. coli ML-35p [9] = assay: Time-kill assay; format: cell-based, Escherichia coli; conditions: 120-min exposure, 12 μM, PBS, 10^6 cfu/ml
Protocol: Time-kill assays were performed on bacteria and Leishmania infantum promastigotes. For bacteria (E. coli ML-35p and S. aureus ST1065, 10^6 cfu/ml), assays were performed as previously described, with final temporin concentrations of 6 and 12 μM. For parasite time-kill assays, Leishmania infantum promastigotes harvested in exponential phase were washed twice (1,000 x g, 10 min) with Hank's balanced salt solution (HBSS) supplemented with 20 mM glucose and then suspended in the same buffer to a density of 2.5 x 10^6 cells/ml. This suspension (800 μl) was incubated with 200 μl of a 5X temporin solution, and parasitic death was evaluated at different times by counting parasites (FACSCalibur) after staining with 1 μg/ml propidium iodide (Molecular Probes). Negative controls were assayed without peptides. Three experiments were carried out in triplicate for bacteria or in duplicate for parasites.

E. coli ATCC 25922 = conditions: MH broth, 10^6 cfu/ml; mean of 3 independent experiments in triplicate
Protocol: as §4, §3

[10] = test system: L. amazonensis promastigotes; conditions: cell counting; mean of 3 independent experiments in duplicate
Protocol: as §1, §2

E. coli ML-35p [11] = conditions: MH broth, 10^6 cfu/ml; mean of 3 independent experiments in triplicate
Protocol: as §4, §3

K. pneumoniae ATCC 13883 = conditions: MH broth, 10^6 cfu/ml; mean of 3 independent experiments in triplicate
Protocol: as §3

E. faecalis ATCC 29212 = conditions: LB broth, 10^6 cfu/ml; mean of 3 independent experiments in triplicate
Protocol: as §4, §3

T. cruzi epimastigotes = conditions: 120 h incubation, cell counting; mean of 3 independent experiments in duplicate
Protocol: as §7

Human HepG2 = conditions: MTT, 72 h, 37°C, 50–600 μM; mean of 3 independent experiments in triplicate
[12] = test system: L. braziliensis promastigotes; conditions: mean of 3 independent experiments in triplicate
Protocol: as §1, §2

[13] = test system: promastigotes of several species of Leishmania; conditions: read-out: IC50 (range over Leishmania species); promastigotes of L. infantum, L. major, L. amazonensis, L. braziliensis
Protocol: as §7

S. aureus ATCC BAA-44 = conditions: multidrug-resistant strain; MH broth, 10^6 cfu/ml; mean of 3 independent experiments in triplicate
C. albicans ATCC 90028 = conditions: YPD medium; mean of 3 independent experiments in triplicate
Protocol: as §8, §9

A. baumannii ATCC 19606 = conditions: MH broth, 10^6 cfu/ml; mean of 3 independent experiments in triplicate
Protocol: as §3

FLSGIVGMLGKLF-NH2 [SHa, temporin-SHa]
IC50 [1]: 20 µM
IC50 (L. major promastigotes): 13 µM
IC50 (Human fibroblasts (HFF)): > 100 µM
MIC (S. aureus ATCC 25923): 3 µM
MIC (S. pyogenes ATCC 19615): 6 µM
MIC (S. aureus ST1065): 6 µM
IC50 ([2]; medium with serum, mean of 3 independent experiments in triplicate): 18 µM
IC50 ([2]; serum-free medium (values in parentheses)): 8 µM
IC50 [3]: 9 µM
LC50 (Rat erythrocytes): 25 µM
LC50 (Human erythrocytes): 25 µM
IC50 (T. brucei gambiense): 14 µM
MIC [4]: 100 µM
LC50 [5]: 60 µM
MICGM (geometric mean of the MIC values) (Gram-negative bacteria): 14.4 µM
MICGM (geometric mean of the MIC values) (Gram-positive bacteria): 6 µM
MICGM (geometric mean of the MIC values) (Yeasts/fungi): 31.1 µM
IC50 [6]: 14 µM
MIC [7]: 25 µM
MIC (P. aeruginosa ATCC 27853): 50 µM
IC50 (Human THP-1 monocytes): > 60 µM
MIC (L. ivanovii): 6 µM
MIC (S. cerevisiae): 12 µM
killing [8]: 38%
MIC (S. aureus ATCC 43300): 6 µM
killing (E. coli ML-35p [9]): approximately 93%
MIC (E. coli ATCC 25922): 10 µM
IC50 [10]: 13 µM
MIC (E. coli ML-35p [11]): 10 µM
MIC (K. pneumoniae ATCC 13883): 12 µM
MIC (E. faecalis ATCC 29212): 12 µM
IC50 (T. cruzi epimastigotes): 17 µM
IC50 (Human HepG2): 560 µM
IC50 [12]: 7 µM
IC50 [13]: 7 to 18 µM
MIC (S. aureus ATCC BAA-44): 6 µM
MIC (C. albicans ATCC 90028): 25 µM
MIC (A. baumannii ATCC 19606): 6 µM
